Experimental data from US7208479B2, “Peritoneal dialysis solution containing modified icodextrins” (Baxter International, Inc., priority 1998, dated 2007).

Key:
[1] = Stability under sterilization conditions: absorbance (284 nm) variation after sterilization (121° C. 45 min); assay type: physicochemical
Method: The products were tested for stability under sterilization conditions at neutral pH. A significant reduction of absorbance variation at 284 nm (Δ Abs) after sterilization is observed for the reduced compounds. The reduced compounds from Example 1 are listed as HMW1 red, HMW2 red and LMW red in Table 1.
Utilizing the three different samples of maltodextrins discussed above with respect to Example 1, oxidation reactions were carried out on each sample by dissolving 15 grams of maltodextrin in 30 ml of water and combining the starch solution with an effective amount of NaOCl in 70 ml of a solution containing sodium hydroxide and having a pH of 8±0.5 at a temperature of 43° C. The combined solutions were allowed to stand for approximately 2 hours and the product solution was purified by gel permeation chromatography. Again, the products were analyzed using ^13C NMR spectroscopy and were tested for stability under sterilization conditions as illustrated in Table 1. While the oxidation products, HMW1 ox HMW2 ox and LMW ox show contrasting results, this is attributed to the high molecular weight oxidized products not being completely purified.
The stability of one product shown in Table 3 was tested for stability under sterilization conditions and the observed variation at 284 nm is compared with that of glucose and methyl glycoside.

[2] = In vitro dialysis test predictive of dialytic efficiency: volume increase inside dialysis bag (Spectra Pore membrane, cut-off 500 Dalton); details: 37° C.
Method: In an in vitro test predictive of the dialytic efficiency of the osmotic agents described above, small dialysis bags with Spectra Pore membrane with a cut-off 500 Dalton (diameter 15 mm, 15 cm high) were filled with 3 ml of water solutions at different concentrations (2.5, 5.0% w/v of the samples). The bags were immersed in 200 ml of distilled water and 37° C. while stirring the extra dialysis solution. At given times (0, 1, 2, 3, 4, 5, 6 hours), the increase in the volume inside the dialysis bag was evaluated by weight and expressed as a percentage increase compared to the starting volume (Δw %).

[3] = Table 4, 2.5% (w/v), sterilization 121° C. 45 min
[4] = 2.5% solution at pH 7 (footnote *), sterilization 121° C. 45 min
[5] = 2.5% w/v, listed as β-methly-gluc.
[6] = 2.5% w/v, listed as α-methly-gluc.

| Compound | ΔAbs neutra (pH 6.5–7.5) [1, 3] | Δw % 1 h ([2]; 2.5% w/v) | Δw % 2 h ([2]; 2.5% w/v) | Δw % 3 h ([2]; 2.5% w/v) | Δw % 4 h ([2]; 2.5% w/v) | Δw % 5 h ([2]; 2.5% w/v) | Δw % 6 h ([2]; 2.5% w/v) | ΔAbs (pH 6.5–7.5) [1, 4] | Δw % 1 h ([2]; 5% w/v) | Δw % 2 h ([2]; 5% w/v) | Δw % 3 h ([2]; 5% w/v) | Δw % 4 h ([2]; 5% w/v) | Δw % 5 h ([2]; 5% w/v) | Δw % 6 h ([2]; 5% w/v) | also measured |
| --- | --- | --- | --- | --- | --- | --- | --- | --- | --- | --- | --- | --- | --- | --- | --- |
| Methyl glycoside | 0.01 |  |  |  |  |  |  |  |  |  |  |  |  |  |  |
| O=P(O)(O)O[C@H]1O[C@H](CO)[C@@H](O)[C@H](O)[C@H]1O [gluc.-1-phos., glucose-1-phosphate] |  | 35.8% | 53.6% | 76.3% | 95.9% | 120.1% | 144.1% |  |  |  |  |  |  |  |  |
| O=C1O[C@H](CO)[C@@H](O)[C@H](O)[C@H]1O [D(+)-Gluconolactone] |  |  |  |  |  |  |  | 0.01 |  |  |  |  |  |  |  |
| O=C[C@H](O)[C@@H](O)[C@H](O)[C@H](O)CO [Glucose] | 0.07 | 15.3% | 34.2% | 43.4% | 57.3% | 74.2% | 90.9% | 0.98 |  |  |  |  |  |  | ΔAbs (pH 6.5–7.5) ([1]; 5% solution, after minus before sterilization 121° C. 45 min, pH 6.5–7.5): 2.54 ± 0.78; ΔAbs (pH 5.5) ([1]; 5% solution, sterilization 121° C. 45 min, pH 5.5): 2.36 ± 0.96; ΔAbs neutra (pH 6.5–7.5) ([1]; Table 4, 5% (w/v), sterilization 121° C. 45 min): 2.43 ± 0.9 |
| COC1OC(CO)C(O)C(O)C1O (stereo not drawn) [β-methyl-gluc.] |  |  |  |  |  |  |  |  | 45% | 76.1% | 103.0% | 129.7% | 151.7% | 174.9% | Δw % 1 h [2, 5]: 34.0%; Δw % 2 h [2, 5]: 50.3%; Δw % 3 h [2, 5]: 63.7%; Δw % 4 h [2, 5]: 67.6%; Δw % 5 h [2, 5]: 77.7%; Δw % 6 h [2, 5]: 86.5% |
| COC1OC(CO)C(O)C(O)C1O (stereo not drawn) [α-methyl-gluc.] |  |  |  |  |  |  |  |  | 30.9% | 60.7% | 86.5% | 107.9% | 123.2% | 142.0% | Δw % 1 h [2, 6]: 21.8%; Δw % 2 h [2, 6]: 39.2%; Δw % 3 h [2, 6]: 55.4%; Δw % 4 h [2, 6]: 67.64%; Δw % 5 h [2, 6]: 79.5%; Δw % 6 h [2, 6]: 92.1% |
